Where two headings read alike, the source gives them in different places.
Experiments:
[1] = Determination of plasma concentrations after oral dosing; assay type: in vivo; conditions: rat, male Wistar rats, orally dosed 10 mg/kg, read-out: Plasma c; for concentration at 0.5 h: t = 30 min; for concentration at 5 h: t = 5 h
Description: Male Wistar rats (220-280 g) were orally dosed (10 mg/kg) with test compounds. Control animals received the vehicle only. Blood samples were drawn from the tail artery 0.5 and 5 hours after the treatment and collected into pre-cooled Li-heparinized tubes. The plasma was separated by centrifugation (11000 g, 5 min) and stored at -80° C. until analysis.
The analytes were extracted from 200 μl of acidified plasma (100 μl of 1 M HCI) with 5 ml of ethyl acetate. The organic phase (4 ml) was evaporated to dryness under a stream of nitrogen at 40° C. The residue was redissolved in 200 μl of dimethylsulphoxide and 30 μl of it was analyzed by HPLC with amperometric detection. The electrode potential was +700 mV.

[2] = molecular target: T1, S-COMT enzyme (Homo sapiens, UniProt P21964); assay: Determination of IC50 values, COMT inhibition (dopamine methylation, HPLC); assay type: biochemical; conditions: S-COMT enzyme (about 30 nM), 0.05 mM AdoMet, 3 mM dopamine, 5 min preincubation, 15 min at 37° C., pH 7.4
T1 sequence (P21964 1-221 isoform P21964-2): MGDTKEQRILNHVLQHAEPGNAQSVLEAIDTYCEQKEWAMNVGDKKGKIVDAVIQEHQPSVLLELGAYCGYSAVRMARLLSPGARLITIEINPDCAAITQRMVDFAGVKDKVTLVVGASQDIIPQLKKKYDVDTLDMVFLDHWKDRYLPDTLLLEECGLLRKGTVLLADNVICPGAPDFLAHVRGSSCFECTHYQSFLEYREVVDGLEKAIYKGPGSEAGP
Description: The studied inhibitors were first dissolved into 0.1 M NaOH solution and then diluted with distilled water to 0.5 mM inhibitor concentration. From this stock solution the inhibitor concentrations were adjusted by diluting the desired amounts of stock solution with 0.05 M phosphate buffer, pH 7.4. The studied sample solutions were prepared into the Eppendorf tubes. The final concentrations of the studied samples were; -100 mM phosphate buffer, 5 mM MgCl2, 0.05 mM AdoMet, S-COMT enzyme (about 30 nM) and the inhibitor.
The samples were mixed with Vortex, and incubated for 5 min at 37° C. The reactions were initiated with 3 mM dopamine and carried on for 15 min at 37° C. The reactions were stopped with 4 M perchloric acid and stabilized afterwards for 10 min in ice bath. The sample solutions were centrifuged for 10 min, and the methylated products, 3-methyldopamineand 4-methyidopamine, were analysed with HPLC.

Structure (SMILES)	IC50 [2] [nM]	further results
CC(=O)C(=Cc1cc(O)c(O)c([N+](=O)[O-])c1)C(C)=O [Comparison compound 2, 2[(3,4-dihydroxy-5-nitrophenyl)methylene]-2,4-pentanedione, reference compound]	–	concentration at 0.5 h ([1]; plasma): 530 ng/mL; concentration at 5 h ([1]; plasma): < 25 ng/mL
O=C(O)CCc1c([N+](=O)[O-])cc(O)c(O)c1[N+](=O)[O-] [Example 11, 3-(3,4-DIHYDROXY-2,6-DINITROPHENYL)-PROPANOIC ACID]	30	concentration at 0.5 h ([1]; in vivo): 2100 ng/mL; concentration at 5 h ([1]; in vivo): 490 ng/mL
O=C(O)CCCCc1c([N+](=O)[O-])cc(O)c(O)c1[N+](=O)[O-] [Example 13, 5-(3,4-DIHYDROXY-2,6-DINITROPHENYL)-PENTANOIC ACID]	20	–
O=Cc1cc(O)c(O)c(C=O)c1CCCCC(=O)O [Example 14, 5-(2.6-DIFORMYL-3,4-DIHYDROXYPHENYL)PENTANOIC ACID]	30	–
O=Cc1cc(O)c(O)c(C=O)c1CCC(=O)O [Example 15, 3-(2,6-DIFORMYL-3,4-DIHYDROXYPHENYL)PROPANOIC ACID]	60	–
N#Cc1cc(O)c(O)c(C#N)c1CCCCC(=O)O [Example 16, 5-(3,4-DIHYDROXY-2,6-DICYANOPHENYL)PENTANOIC ACID]	15	concentration at 0.5 h ([1]; plasma): 2000 ng/mL; concentration at 5 h ([1]; plasma): 150 ng/mL
N#Cc1cc(O)c(O)c(C#N)c1CCC(=O)O [Example 17, 3-(2,6-DICYANO-3,4-DIHYDROXYPHENYL)PROPANOIC ACID]	20	–
